{"source": "paper PMC8795197", "about": "“Safety and activity of WX-0593 (Iruplinalkib) in patients with ALK- or ROS1-rearranged advanced non-small cell lung cancer: a phase 1 dose-escalation and dose-expansion trial” (Signal Transduction and Targeted Therapy, 2022)", "key": {"[1]": {"assay": "Metabolic stability in liver microsomes", "format": "in vitro ADME", "conditions": "for half-life: read-out: elimination half-life", "source_text": "The objective of this study is to evaluate the metabolic stability of tested drug WX-0593 in CD-1 mice, SD rats, beagles, cynomolgus monkeys, and human liver microsomes."}, "[2]": {"assay": "Repeated-dose toxicity study, 28 days oral gavage", "format": "in vivo, rats", "conditions": "for AUC(0-t): po, read-out: AUC0-24h (Day 28)", "description": "The severely toxic dose in 10% of the animals (STD10) in rodents was > 30 mg/kg. At a dose of 10 mg/kg/day, AUC0-24h (Day 28) was 16800 h·ng/mL in males and 17300 h·ng/mL in females, which is 4.5 times and 4.7 times of the exposure at the effective dose in mice (2.5 mg/kg, AUC0-24h: 3700 h·ng/mL). At a dose of 30 mg/kg/day, AUC0-24h (Day 28) was 27100 h·ng/mL in males and 42400 h·ng/mL in females, which is 7.3 times and 11.5 times of the exposure at the effective dose in nude mice (2.5 mg/kg, AUC0-24h: 3700 h·ng/mL)."}, "Ba/F3": {"system": "Ba/F3", "assay": "Cell proliferation inhibition assay", "format": "cell-based"}, "[3]": {"assay": "Metabolite identification in plasma", "format": "in vivo, cynomolgus monkey", "conditions": "oral WX-0593", "source_text": "Under current experimental conditions, 1 metabolite in addition to the parent drug was detected in monkey plasma: a demethylation metabolite, M2 (MW = 554.23, P - CH2). Based on the % peak area from mass spectrometry, the drug exists primarily as the parent drug in the plasma of both male and female monkeys (99.06% in females and 99.47% in males). Metabolite M2 (0.94% in females and 0.53% in males) was a secondary metabolite. Based on the types of metabolites, it is speculated that WX-0593 is mainly metabolized through demethylation after oral administration in monkeys. There was no significant difference in metabolites between female and male monkeys."}, "[4]": {"system": "ALK+ human lung cancer LU-01-0319 xenograft", "assay": "PDX model, anti-tumor activity", "format": "in vivo", "description": "(§1) The anti-tumor activity of WX-0593 was evaluated in two PDX models. […] WX-0593 was well-tolerated at all concentrations."}, "[5]": {"system": "ALK+ human lung cancer LU-01-0015 xenograft", "assay": "PDX model, anti-tumor activity", "format": "in vivo", "description": "as §1"}, "[6]": {"assay": "Reproductive toxicity study", "conditions": "rat, in vivo"}, "[7]": {"assay": "Absorption study (IV and oral PK)", "format": "in vivo, cynomolgus monkeys", "conditions": "for bioavailability: read-out: absolute bioavailability", "description": "Rats and cynomolgus monkeys were selected for the absorption studies based on the \"Guidance on the non-clinical pharmacokinetics of medicinal products\" (CFDA, 2014) and the in vitro study of species differences in liver microsomes and hepatocyte metabolism.\nIn general, within the range of 0.5 mg/kg–8 mg/kg, the systemic exposure in male cynomolgus monkeys increased proportionately with the dose, while increased slightly faster than the dose in female cynomolgus monkeys."}, "hERG currents": {"target": "hERG currents (Homo sapiens, UniProt Q12809)", "sequence (Q12809 whole entry)": "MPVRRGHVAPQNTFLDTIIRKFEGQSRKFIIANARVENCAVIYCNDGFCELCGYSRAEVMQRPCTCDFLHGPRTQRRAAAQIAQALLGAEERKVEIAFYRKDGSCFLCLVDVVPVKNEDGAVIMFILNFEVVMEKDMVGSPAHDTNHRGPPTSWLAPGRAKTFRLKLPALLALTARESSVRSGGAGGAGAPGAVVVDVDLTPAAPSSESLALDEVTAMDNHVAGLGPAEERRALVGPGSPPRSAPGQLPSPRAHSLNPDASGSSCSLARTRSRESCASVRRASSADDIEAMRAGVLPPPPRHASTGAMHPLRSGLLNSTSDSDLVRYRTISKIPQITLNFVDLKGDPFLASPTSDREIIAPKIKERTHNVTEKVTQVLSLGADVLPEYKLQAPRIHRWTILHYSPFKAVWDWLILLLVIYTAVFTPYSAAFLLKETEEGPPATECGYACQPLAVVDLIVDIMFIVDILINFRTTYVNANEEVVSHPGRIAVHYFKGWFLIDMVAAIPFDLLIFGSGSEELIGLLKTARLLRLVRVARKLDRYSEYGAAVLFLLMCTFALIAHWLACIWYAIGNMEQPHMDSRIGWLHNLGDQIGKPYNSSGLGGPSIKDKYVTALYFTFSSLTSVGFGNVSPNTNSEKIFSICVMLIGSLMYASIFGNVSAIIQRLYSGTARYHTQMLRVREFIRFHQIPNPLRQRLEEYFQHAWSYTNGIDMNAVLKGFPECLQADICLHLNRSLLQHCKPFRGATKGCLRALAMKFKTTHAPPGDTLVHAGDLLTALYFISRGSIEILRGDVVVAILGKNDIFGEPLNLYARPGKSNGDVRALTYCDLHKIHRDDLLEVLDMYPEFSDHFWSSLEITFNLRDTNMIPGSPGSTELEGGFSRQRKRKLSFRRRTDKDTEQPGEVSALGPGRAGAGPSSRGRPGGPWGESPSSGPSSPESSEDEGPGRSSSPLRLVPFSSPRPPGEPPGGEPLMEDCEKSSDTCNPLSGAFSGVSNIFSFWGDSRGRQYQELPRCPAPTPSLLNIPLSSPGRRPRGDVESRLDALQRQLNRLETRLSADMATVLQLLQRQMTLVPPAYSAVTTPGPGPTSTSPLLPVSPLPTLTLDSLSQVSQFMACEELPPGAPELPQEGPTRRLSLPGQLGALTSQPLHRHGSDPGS", "assay": "Inhibition of hERG currents", "format": "cell-based", "description": "(§2) […]. Therefore, WX-0593 has a low risk of cardiotoxicity. There were no effects on the CNS and respiratory system in rats at doses of 3, 10, and 30 mg/kg. However, WX-0593 10 and 30 mg/kg may result in benign respiratory rate and decreases in minute ventilation in female rats. There were no effects on the cardiovascular system, blood pressure, ECG parameters or waveforms in monkeys at doses of 5, 10, and 25 mg/kg; 10 and 25 mg/kg may result in mild decreases in heart rate (within the normal range) and PR prolongation and QTc shortening associated with bradycardia within the normal range (no statistical difference when compared to the control arm). No cardiovascular system adverse reactions related to the test product were found. The human equivalent dose (using 60 kg) is 3636 mg/person in CNS, 3636 mg/person in male respiratory system and 363.6 mg/person in female respiratory system, and 607 mg/person in cardiovascular system."}, "hERG": {"target": "hERG (Homo sapiens, UniProt Q12809)", "sequence (Q12809 whole entry)": "as above", "assay": "Inhibition of hERG currents", "format": "cell-based", "conditions": "human; maximum tested dose 30 μM", "description": "as §2"}, "[8]": {"conditions": "Sprague-Dawley, rat, SD rats liver microsomes"}, "[9]": {"conditions": "beagle, dog, beagles liver microsomes"}, "[10]": {"conditions": "cynomolgus monkey, cynomolgus monkeys liver microsomes"}, "[11]": {"conditions": "mouse, CD-1 mice liver microsomes"}}, "note": "Where two headings read alike, the source gives them in different places.", "data": [{"smiles": "COc1cc(N2CCC3(CCN(C)CC3)CC2)ccc1Nc1ncc(Cl)c(Nc2ccccc2P(C)(C)=O)n1", "note": "[WX-0593]", "values": [{"measurement": "CLint scaled", "setting": "[1]; [8]", "result": "< 17.3", "unit": "mL/min/kg"}, {"measurement": "half-life", "setting": "[1]; [8]", "result": "> 2.42", "unit": "h"}, {"measurement": "CLint scaled", "setting": "[1]; [9]", "result": 14.7, "unit": "mL/min/kg"}, {"measurement": "half-life", "setting": "[1]; [9]", "result": 2.27, "unit": "h"}, {"measurement": "CLint scaled", "setting": "[1]; [10]", "result": "< 13", "unit": "mL/min/kg"}, {"measurement": "half-life", "setting": "[1]; [10]", "result": "> 2.42", "unit": "h"}, {"measurement": "CLint scaled", "setting": "[1]; human liver microsomes", "result": "< 9.5", "unit": "mL/min/kg"}, {"measurement": "half-life", "setting": "[1]; human liver microsomes", "result": "> 2.42", "unit": "h"}, {"measurement": "CLint scaled", "setting": "[1]; [11]", "result": 52.3, "unit": "mL/min/kg"}, {"measurement": "half-life", "setting": "[1]; [11]", "result": 1.75, "unit": "h"}, {"measurement": "exposure as multiple of that at the effective dose in mice", "setting": "[2]; 10 mg/kg/day, females", "result": 4.7, "unit": "times"}, {"measurement": "exposure as multiple of that at the effective dose in mice", "setting": "[2]; 10 mg/kg/day, males", "result": 4.5, "unit": "times"}, {"measurement": "exposure as multiple of that at the effective dose in nude mice", "setting": "[2]; 30 mg/kg/day, females", "result": 11.5, "unit": "times"}, {"measurement": "exposure as multiple of that at the effective dose in nude mice", "setting": "[2]; 30 mg/kg/day, males", "result": 7.3, "unit": "times"}, {"measurement": "human equivalent dose", "setting": "[2]; 1/10 of rat STD10, 60 kg/person", "result": 29, "unit": "mg/person"}, {"measurement": "severely toxic dose in 10% of the animals (STD10)", "setting": "[2]; 28 days oral gavage", "result": "> 30", "unit": "mg/kg"}, {"measurement": "AUC(0-t)", "setting": "[2]; female, rat, in vivo, 10 mg/kg/day, females", "result": 17300, "unit": "ng·h/mL"}, {"measurement": "AUC(0-t)", "setting": "[2]; female, rat, in vivo, 30 mg/kg/day, females", "result": 42400, "unit": "ng·h/mL"}, {"measurement": "AUC(0-t)", "setting": "[2]; male, rat, in vivo, 10 mg/kg/day, males", "result": 16800, "unit": "ng·h/mL"}, {"measurement": "AUC(0-t)", "setting": "[2]; male, rat, in vivo, 30 mg/kg/day, males", "result": 27100, "unit": "ng·h/mL"}, {"measurement": "NOAEL at 28 days", "setting": "[2]; rat, in vivo, 28 days oral gavage", "result": 10, "unit": "mg/kg/day"}, {"measurement": "IC50 relative to ALK-related cells", "setting": "Ba/F3", "result": "significantly higher"}, {"measurement": "% peak area from mass spectrometry in plasma", "setting": "[3]; female monkeys", "result": 99.06, "unit": "%"}, {"measurement": "% peak area from mass spectrometry in plasma", "setting": "[3]; male monkeys", "result": 99.47, "unit": "%"}, {"measurement": "anti-tumor activity", "setting": "[4]; 1, 2.5 and 5 mg/kg", "result": "good anti-tumor activity"}, {"measurement": "mean body weight", "setting": "[4]; all treatment arms", "result": "no significant decrease in mean weight"}, {"measurement": "anti-tumor activity", "setting": "[5]; 15 mg/kg, 10 mg/kg (D0–D7)/2.5 mg/kg (D8–D27), 5 mg/kg", "result": "significant anti-tumor activity"}, {"measurement": "body weight", "setting": "[5]; all treatment arms", "result": "no significant decrease in weight"}, {"measurement": "NOAEL as multiple of the effective dose in nude mice", "setting": "[6]", "result": 8, "unit": "times"}, {"measurement": "NOAEL", "setting": "[6]; read-out: NOAEL of fertility and early embryo developmental toxicity", "result": 10, "unit": "mg/kg"}, {"measurement": "Tmax", "setting": "[7]; both sexes, cynomolgus monkey, plasma, oral gavage 0.5–8 mg/kg", "result": "2 to 3.33", "unit": "h"}, {"measurement": "half-life", "setting": "[7]; both sexes, cynomolgus monkey, plasma, oral gavage 0.5–8 mg/kg, read-out: plasma terminal half-life", "result": "3.29 to 8.14", "unit": "h"}, {"measurement": "AUC(0-t)", "setting": "[7]; both sexes, cynomolgus monkey, plasma, single IV 0.5 mg/kg, read-out: AUC0-24h", "result": "323 ± 91.1", "unit": "ng·h/mL"}, {"measurement": "Vd", "setting": "[7]; both sexes, cynomolgus monkey, plasma, single IV 0.5 mg/kg, read-out: apparent volume of distribution (Vdss)", "result": "7.7 ± 1.24", "unit": "L/kg"}, {"measurement": "MRT inf", "setting": "[7]; both sexes, cynomolgus monkey, plasma, single IV 0.5 mg/kg, read-out: mean residence time (MRT0-inf)", "result": "5.03 ± 138", "unit": "h"}, {"measurement": "clearance", "setting": "[7]; both sexes, cynomolgus monkey, plasma, single IV 0.5 mg/kg, read-out: plasma clearance (CL)", "result": "26.8 ± 6.82", "unit": "mL/min/kg"}, {"measurement": "half-life", "setting": "[7]; both sexes, cynomolgus monkey, plasma, single IV 0.5 mg/kg, read-out: plasma elimination half-life T1/2 (converted)", "result": "4.37 ± 2.38", "unit": "h"}, {"measurement": "bioavailability", "setting": "[7]; both sexes, cynomolgus monkey, plasma, single oral 0.5 mg/kg", "result": 37.5, "unit": "%"}, {"measurement": "bioavailability", "setting": "[7]; both sexes, cynomolgus monkey, plasma, single oral 8 mg/kg", "result": 74.7, "unit": "%"}, {"measurement": "drug accumulation", "setting": "[7]; oral 2 mg/kg, 7 consecutive days", "result": "no significant drug accumulation"}, {"measurement": "absolute bioavailability", "setting": "[7]; single oral 2 mg/kg", "result": 46.6, "unit": "%"}, {"measurement": "IC50", "setting": "hERG currents", "result": 20, "unit": "µM"}, {"measurement": "hERG slope", "setting": "hERG currents", "result": 0.95}, {"measurement": "inhibition at 30 μM", "setting": "hERG", "result": 58.1, "unit": "%"}]}]}
